Results as given in the supplement of paper PMC4977894.
± gives the standard deviation of the averaged measurements.

Key:
[1] = tested on: Homo sapiens (human subject panel, olfactory perception); experiment: perceived odor pleasantness rating (rating 0-100); higher = more pleasant
Outline: (§1)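 For each molecule, 1 mL diluted in paraffin oil was sniffed at high and low concentrations by 55 healthy human subjects aged 18–50, with the six lowest performers excluded. Presentation order was randomized over ten visits of 100 stimuli. Subjects who reported smelling a stimulus moved a computerized slider from its starting position of 50, and positions were converted to a 0–100 scale. The familiarity, intensity and pleasantness ratings are averaged across subjects.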

[2] = tested on: Homo sapiens (human subject panel, olfactory perception); experiment: perceived odor intensity rating (rating 0-100); higher = stronger perceived smell
Outline: as §1

[3] = tested on: Homo sapiens (human subject panel, olfactory perception); experiment: perceived odor familiarity rating (rating 0-100); higher = more familiar
Outline: as §1

[4] = odor dilution in paraffin oil: 1/1,000
[5] = odor dilution in paraffin oil: 1/100,000
[6] = odor dilution in paraffin oil: 1/10
[7] = odor dilution in paraffin oil: 1/10,000,000

Compound | perceived odor pleasantness rating [1, 4] | perceived odor pleasantness rating [1, 5] | perceived odor intensity rating [2, 4] | perceived odor intensity rating [2, 5] | perceived odor familiarity rating [3, 4] | perceived odor familiarity rating [3, 5] | perceived odor pleasantness rating [1, 6] | perceived odor intensity rating [2, 6] | perceived odor familiarity rating [3, 6] | perceived odor pleasantness rating [1, 7] | perceived odor intensity rating [2, 7] | perceived odor familiarity rating [3, 7]
C=C(C)C1CC=C(C)C(OC(C)=O)C1 (stereo not drawn) [carvyl acetate] | 27.2 ± 22 | 44.1 ± 23 | 75 ± 25 | 38.6 ± 33 | 43.5 ± 32 | 37.2 ± 30 |  |  |  |  |  | 
OC/C=C/c1ccccc1 [cinnamyl alcohol] | 47.4 ± 31 | 42.9 ± 28 | 75.8 ± 21 | 60.3 ± 28 | 52.6 ± 34 | 53.7 ± 33 |  |  |  |  |  | 
CCCCCC/C=C\CO [cis-2-Nonen-1-ol] | 34.7 ± 25 | 36 ± 21 | 77.9 ± 21 | 54.7 ± 32 | 46.3 ± 30 | 40.8 ± 30 |  |  |  |  |  | 
CC/C=C\CCO [cis-3-Hexen-1-ol] | 51 ± 31 | 60 ± 22 | 81.9 ± 16 | 39.7 ± 28 | 69.6 ± 30 | 60.5 ± 30 |  |  |  |  |  | 
CC/C=C\CCOC(=O)c1ccccc1 [cis-3-Hexenyl benzoate] | 40.8 ± 19 | 51.2 ± 13 | 40.4 ± 31 | 28.1 ± 26 | 36.3 ± 28 | 34 ± 23 |  |  |  |  |  | 
CC/C=C\CCOC(=O)C(C)C [cis-3-Hexenyl isobutyrate] | 47.1 ± 29 | 40.8 ± 22 | 73.3 ± 25 | 30 ± 28 | 55.4 ± 31 | 40.1 ± 30 |  |  |  |  |  | 
CC/C=C\CCOC(=O)C(C)O (stereo not drawn) [cis-3-Hexenyl lactate] | 51.7 ± 26 | 46.7 ± 22 | 67.2 ± 29 | 30.3 ± 28 | 57.1 ± 31 | 38.6 ± 30 |  |  |  |  |  | 
CC/C=C\CCOC(=O)Cc1ccccc1 [cis-3-Hexenyl phenylacetate] | 40.1 ± 26 | 52.2 ± 25 | 51 ± 31 | 14.4 ± 23 | 41.3 ± 30 | 37.5 ± 32 |  |  |  |  |  | 
CC/C=C\CCOC(=O)CC [cis-3-Hexenyl propionate] | 64.4 ± 28 | 52 ± 20 | 61.7 ± 26 | 20.4 ± 23 | 60.9 ± 30 | 30.7 ± 28 |  |  |  |  |  | 
CC/C=C\CCOC(=O)c1ccccc1O [cis-3-Hexenyl salicylate] | 48.1 ± 26 | 49.8 ± 24 | 49.2 ± 30 | 9.75 ± 16 | 40.2 ± 26 | 36.8 ± 33 |  |  |  |  |  | 
C/C=C(\C)C(=O)OCC/C=C\CC [cis-3-Hexenyl tiglate] | 47.6 ± 28 |  | 45.7 ± 30 |  | 47.9 ± 30 |  | 47.2 ± 31 | 79.2 ± 18 | 53.4 ± 31 |  |  | 
CC/C=C\CCOC(C)=O [cis-3-hexenyl acetate] | 63.8 ± 30 | 70.9 ± 20 | 76.7 ± 22 | 41 ± 31 | 73.6 ± 28 | 64.7 ± 30 |  |  |  |  |  | 
CCCCC/C=C\CCCO [cis-4-Decen-1-ol] | 49.2 ± 25 | 53.6 ± 27 | 65.4 ± 26 | 29.2 ± 32 | 49.8 ± 29 | 40.3 ± 32 |  |  |  |  |  | 
CC/C=C\CCC=O [cis-4-Heptenal] |  | 28.7 ± 25 |  | 66.8 ± 29 |  | 46.1 ± 33 |  |  |  | 32.5 ± 26 | 56.2 ± 31 | 45.2 ± 31
CC/C=C\CCCCO [cis-5-Octen-1-ol] | 59.3 ± 28 | 66.6 ± 21 | 75.7 ± 20 | 40.6 ± 30 | 69.2 ± 27 | 59.5 ± 29 |  |  |  |  |  | 
O=c1ccc2ccccc2o1 [coumarin] | 65.1 ± 25 |  | 62.8 ± 26 |  | 55.9 ± 31 |  | 67.2 ± 26 | 77.5 ± 16 | 63.8 ± 30 |  |  | 
CC(C)c1ccc(C=O)cc1 [cuminaldehyde] | 51.2 ± 28 | 58.1 ± 26 | 59.1 ± 31 | 16.2 ± 20 | 50.9 ± 35 | 31.3 ± 26 |  |  |  |  |  | 
C=C(C)[C@H]1CC=C(C)CC1 [d-Limonene] | 52.6 ± 21 | 30.9 ± 25 | 29.6 ± 26 | 45.4 ± 36 | 43.6 ± 28 | 41.1 ± 28 |  |  |  |  |  | 
